Assay results from PMC3095316, “Differential expression pattern of an acidic 9/13-lipoxygenase in flower opening and senescence and in leaf response to phloem feeders in the tea plant” (BMC Plant Biology, 2010).
Like-named read-outs stand apart in the source and are kept apart here.

Biological target: T1, CsLOX1 (9/13-CsLOX1) (Camellia sinensis, UniProt A8W7J7)
T1 construct: gene lox1
T1 sequence (A8W7J7 1-861): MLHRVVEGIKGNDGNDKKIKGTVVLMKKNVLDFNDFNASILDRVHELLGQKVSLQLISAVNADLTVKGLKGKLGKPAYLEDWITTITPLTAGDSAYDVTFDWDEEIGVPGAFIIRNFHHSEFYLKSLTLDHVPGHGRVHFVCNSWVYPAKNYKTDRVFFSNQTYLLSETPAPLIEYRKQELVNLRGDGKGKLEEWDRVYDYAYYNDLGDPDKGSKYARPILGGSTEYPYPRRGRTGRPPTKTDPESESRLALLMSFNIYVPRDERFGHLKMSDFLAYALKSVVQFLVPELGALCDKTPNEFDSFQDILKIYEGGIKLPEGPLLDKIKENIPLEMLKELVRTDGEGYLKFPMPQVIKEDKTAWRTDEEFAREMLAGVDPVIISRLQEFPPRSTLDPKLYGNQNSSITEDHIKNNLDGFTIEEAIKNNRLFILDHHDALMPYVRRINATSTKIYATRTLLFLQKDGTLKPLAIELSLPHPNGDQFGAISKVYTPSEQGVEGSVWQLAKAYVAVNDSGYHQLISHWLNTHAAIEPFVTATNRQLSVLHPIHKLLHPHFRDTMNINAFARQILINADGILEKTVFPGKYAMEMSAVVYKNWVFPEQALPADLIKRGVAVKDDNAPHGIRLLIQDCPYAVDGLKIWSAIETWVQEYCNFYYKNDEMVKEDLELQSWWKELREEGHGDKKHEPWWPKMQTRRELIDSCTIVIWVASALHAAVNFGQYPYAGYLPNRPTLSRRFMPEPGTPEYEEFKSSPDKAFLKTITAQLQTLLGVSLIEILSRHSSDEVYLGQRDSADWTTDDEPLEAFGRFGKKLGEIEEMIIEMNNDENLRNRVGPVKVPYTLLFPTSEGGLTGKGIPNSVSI
Settings: co-substrate O2, substrate 75-600 μM, pH and temperature of the kinetics not stated (optimum pH 3.6, 25°C)

| Km [µM] | Km (linolenic acid isomer not printed (alpha taken from jasmonate context)) [µM] | Compound |
| --- | --- | --- |
| 141 | – | CCCCC/C=C\C/C=C\CCCCCCCC(=O)O [linoleic acid] |
| – | 32.9 | CC/C=C\C/C=C\C/C=C\CCCCCCCC(=O)O [linolenic acid] |
